# Assay results reported in US20150203837A1, “FUSION PROTEIN FOR ACTIVATING RTK SIGNAL TRANSMISSION BY MEANS OF LIGHT, AND USE THEREOF” (KOREA ADVANCED INSTITUTE OF SCIENCE AND TECHNOLOGY, priority 2012, published 2015).
# Biological target: T1, TrkB (Rattus norvegicus, UniProt Q63604)
# T1 construct: PHR domain (1-498 a.a.) of Arabidopsis CRY2 (NM_100320); expressed in transfected cells; host or cells: HeLa; the other entry of the earlier key: CRY2 (Q96524, Cryptochrome-2)
# Assay: Light-induced calcium signaling after treatment with TrkB-specific inhibitor (R-GECO imaging)
# Type: cell-based
# Conditions: 100 nM K252a; HeLa cells co-transfected with TrkB-PHR-YFP and R-GECO; 488 nm light
# Text: The present inventors observed whether sub-RTK signaling was activated by light irradiation after treating a RTK-specific inhibitor in order to confirm that only RTK-specific signaling pathways are activated by light irradiation affecting downstream pathways thereof.
# The present inventors used TrkB-PHR-YFP construct prepared in the example 1-1 as an example to investigate the activation of TRK signal transduction. In addition, the present inventors used R-GECO construct (Addgene, plasmid 32444; CMV-R-GECO1) to investigate whether calcium signaling among downstream signaling pathways of RTK is activated by light irradiation. Particularly, HeLa cells were co-transfected with the TrkB-PHR-YFP construct prepared in the example 1-1 and R-GECO construct and cultured in DMEM media containing 10% FBS in the condition of 37° C. and 10% CO2. The cultivated cells were treated with 100 nM of K252a known as a TrkB-specific inhibitor and images taken with a confocal microscope before and after the irradiation with light having 488 nm of wavelength were obtained and analyzed (FIG. 6). As a result, it was observed that there is no difference in the experimental group treated with K252a. On the contrary, the calcium signaling was changed according to light irradiation in the control group.
# T1 sequence (Q63604 with tags, fused parts or gaps): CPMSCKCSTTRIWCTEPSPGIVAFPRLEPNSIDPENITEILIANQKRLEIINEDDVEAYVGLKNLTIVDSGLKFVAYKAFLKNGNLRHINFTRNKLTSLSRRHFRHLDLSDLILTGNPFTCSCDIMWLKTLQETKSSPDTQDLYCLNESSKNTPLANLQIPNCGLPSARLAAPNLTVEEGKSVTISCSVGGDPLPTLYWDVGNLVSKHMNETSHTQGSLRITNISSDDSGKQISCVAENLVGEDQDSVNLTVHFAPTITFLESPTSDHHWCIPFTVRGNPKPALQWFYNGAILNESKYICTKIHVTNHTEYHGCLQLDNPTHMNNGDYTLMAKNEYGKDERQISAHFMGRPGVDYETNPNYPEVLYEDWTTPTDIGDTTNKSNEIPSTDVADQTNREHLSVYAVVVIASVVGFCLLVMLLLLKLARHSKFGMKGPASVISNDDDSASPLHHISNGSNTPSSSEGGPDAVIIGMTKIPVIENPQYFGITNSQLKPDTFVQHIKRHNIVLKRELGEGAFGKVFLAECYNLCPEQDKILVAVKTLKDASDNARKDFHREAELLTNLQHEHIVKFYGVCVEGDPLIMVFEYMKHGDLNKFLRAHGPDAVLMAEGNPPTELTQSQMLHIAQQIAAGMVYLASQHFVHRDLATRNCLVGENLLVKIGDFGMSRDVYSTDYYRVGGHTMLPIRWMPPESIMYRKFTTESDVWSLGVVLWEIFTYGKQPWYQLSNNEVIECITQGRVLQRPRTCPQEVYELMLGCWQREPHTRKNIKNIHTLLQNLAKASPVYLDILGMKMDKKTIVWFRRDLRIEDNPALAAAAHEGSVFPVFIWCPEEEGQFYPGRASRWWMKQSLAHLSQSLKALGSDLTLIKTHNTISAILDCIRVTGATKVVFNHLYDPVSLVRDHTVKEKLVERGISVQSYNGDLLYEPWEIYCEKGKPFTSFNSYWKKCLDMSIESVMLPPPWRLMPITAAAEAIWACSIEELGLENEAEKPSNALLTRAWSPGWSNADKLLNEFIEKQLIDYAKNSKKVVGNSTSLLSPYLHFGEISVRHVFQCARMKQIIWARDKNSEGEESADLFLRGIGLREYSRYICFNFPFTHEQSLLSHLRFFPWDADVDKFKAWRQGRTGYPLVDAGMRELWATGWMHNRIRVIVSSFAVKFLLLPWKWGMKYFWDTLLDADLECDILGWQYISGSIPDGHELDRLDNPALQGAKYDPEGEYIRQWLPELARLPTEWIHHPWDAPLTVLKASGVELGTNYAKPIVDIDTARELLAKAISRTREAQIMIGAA
structure (smiles),measurement,value
COC(=O)[C@@]1(O)C[C@H]2O[C@]1(C)n1c3ccccc3c3c4c(c5c6ccccc6n2c5c31)C(=O)NC4 [K252a],change of calcium signaling according to light irradiation,no difference
